From PMC10518255, “A first-in-class pan-lysyl oxidase inhibitor impairs stromal remodeling and enhances gemcitabine response and survival in pancreatic cancer” (Nature Cancer, 2023)
“And” between values parts separate entries of the source, which are not always exact repeats. Identical values can stand only once.

Experiments:
KPC PDAC tumors = experiment: Necrosis determined by H&E in end-point KPC tumors; type: in vivo; conditions: KPC tumours at endpoint; one value per mouse, 8 mice per cohort scored (Extended Data 6J)
Method: All tissues or matrices were fixed in 10% buffered formalin and embedded in paraffin. The 4-μm sections of samples were deparaffinized with xylene and rehydrated in graded ethanol washes. H&E staining and counterstaining were performed on a Leica autostainer.
Extended Data Fig. 6 PXS-5505 in combination with gemcitabine in a KPC model. a. Quantification of proliferating cells (Ki67 positive nuclear staining) in KPC tumors at end point, treated as indicated. 5 fields of view (500 μm × 500 μm) per mouse and 10 mice per cohort were scored. […] Scale bars = 100 μm b. Quantification of percent coverage of αSMA positive staining in KPC tumors at end point, treated as indicated. 3 fields of view (1000 μm × 1000 μm) per mouse and 10 mice per cohort were scored. […] Scale bars = 100 μm c. Quantification of percent coverage of PDGFR-ß positive staining in KPC tumors at end point, treated as indicated. 3 fields of view (1000 μm × 1000 μm) per mouse and 10 mice per cohort were scored. […] Scale bars = 100 μm d. Quantification of pMLC2 positive staining in stromal regions of KPC tumors at end point, treated as indicated. 3 fields of view (500 μm × 500 μm) per mouse and 10 mice per cohort were scored. […] Quantification of tumor vasculature (CD31 positive staining) in KPC tumors at end point, treated as indicated. 3 fields of view (1000 μm × 1000 μm) per mouse and 10 mice per cohort were scored. […]

APMA human PDX tumors = experiment: APMA human PDX model, picrosirius red birefringence (Extended Data Fig. 5i); type: in vivo, mouse; conditions: for Quantification of green birefringent (nascent) collagen fibres: Extended Data 5I, human PDXs at endpoint, individual animals
Method: Subcutaneous PDX studies were performed by implanting early passage PDX pieces (~4 mm^3) or TKCC10 CCs (1.5 × 10^6 cells per mouse in 100 μl PBS/Matrigel 1:1) into female (PDX) or male (TKCC10) 8-week-old immunocompromised nude Balb/c-Fox1nuAusb mice subcutaneously on the left flank. For the duration of the study, mice were kept in conventional caging with environmental enrichment, access to standard chow, water ad libitum and 12-h light–dark cycle at ambient temperature and humidity. Treatment began when tumors reached 150 mm^3, where each mouse was randomized into a treatment group and administered gemcitabine HCl (100 mg kg^−1 in saline) (Jomar Life Research) or vehicle control (0.9% saline) by i.p. injection twice weekly on day 2 and 4 of the treatment cycle until an ethical end point was reached. These included maximal tumor mass ≥10% of body weight, weight loss ≥20% from maximum body weight or tumor interfering with mobility and affecting access to food and water. Animals with non-tumor-related complications that led to a premature end point were censored. […] Tumor size was monitored every second day by calipers. Tumor volume was calculated using the formula (length × width^2)/2. […]
For assessment of picrosirius red staining in KPC and APMA patient tumors, five representative regions of interest per section were analyzed for both brightfield and polarized light by a blinded reviewer using in-house automated analysis scripts as described previously[28],[34],[58] […]
Extended Data Fig. 5 PXS-5505 in combination with gemcitabine in vivo. a. […] Signal is defined as the enzyme activity in the aorta, while noise is measured in the presence of a high concentration (300 µM) BAPN to abolish any lysyl oxidase family activity. […] FITC-dextran (molecular weight: 10 kDa) signal quantification from KPC tumor end point from each treatment group (vehicle n = 3 biologically independent animals, PXS-5505 n = 5 biologically independent animals, Gem n = 5 biologically independent animals, PXS-5505 + Gem n = 5 biologically independent animals). […] P-values determined by Welchs t-test. […]

Nc1ccn([C@@H]2O[C@H](CO)[C@@H](O)C2(F)F)c(=O)n1 [Gem, gemcitabine]
necrosis determined by H&E (KPC PDAC tumors): 0 and 7.986 and 6.976 and 4.928 | deposition of collagen I (picrosirius red birefringence) (APMA human PDX tumors; APMA human PDX, three rounds of treatment): increase in the deposition of collagen I | Quantification of green birefringent (nascent) collagen fibres (APMA human PDX tumors): 672.333 and 613 and 417.333 and 643.667 and 776 and 904.333 and 1865.67 and 529.667 and 397.667 and 278

Cl.Cl.NC/C=C(\F)CS(=O)(=O)c1cccc2cccnc12.O [PXS-5505, (Z)-3-fluoro-4-(quinolin-8-ylsulfonyl)but-2-en-1-amine dihydrochloride monohydrate]
necrosis determined by H&E (KPC PDAC tumors): 0 and 2.201 and 15.496 and 22.429 and 2.215 | Quantification of green birefringent (nascent) collagen fibres (APMA human PDX tumors): 61.6667 and 1138 and 246 and 184 and 80.3333 and 99.6667 and 1125.33 and 424.667 and 169.333 and 108
